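Briefly, cells in 96-well plates were exposed to five compound concentrations for 48 h, and endpoints were estimated by linear interpolation. Abbreviation: GI50, concentration required for 50% inhibition of growth.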 The source made the active and inactive calls. Cut-off read from the data, not from the text of the source: active = GI50 up to about 1.1 µM and inactive = higher.

Some test systems named below: COLO 205; SN12C; OVCAR-4; SK-MEL-28; EKVX; NCI-H226; SF-268; LOX IMVI; NCI-H460; A549; K562; HCC 2998; HCT-15; IGROV-1; SF-295; SK-OV-3; OVCAR-5; KM12.
Common to all, as to assay: NCI-60 cell line screen, 48 h

As to `Oc1cc(-c2ccc(Oc3ccccc3)cc2)nc2cc3c(cc12)OCO3`, the GI50 in the test with COLO 205 was > 100 µM (inactive); in the test with SN12C it was > 100 µM (inactive); with OVCAR-4, > 100 µM (inactive); in the test with SK-MEL-28, > 100 µM (inactive); in the test with EKVX, > 100 µM (inactive); in the test with NCI-H226 it was 27.5 µM (inactive). The GI50 in the test on SF-268, in the test on LOX IMVI, in the test on NCI-H460, with A549, in the test with K562 and with HCC 2998 was > 100 µM (inactive) each time. The GI50 in the test on HCT-15 was greater than 100 µM; in the test with IGROV-1, > 100 µM (inactive); with SF-295 it was > 100 µM (inactive).

On to `c1ccc([P+](CCC[P+](c2ccccc2)(c2ccccc2)c2ccccc2)(c2ccccc2)c2ccccc2)cc1`, for which the GI50 was 21.8 µM (inactive) in the test on COLO 205; 33.3 µM (inactive) in the test on SN12C; 57 µM (inactive) with OVCAR-4; 33.5 µM (inactive) in the test with SK-MEL-28; > 100 µM (inactive) in the test with EKVX; 23.6 µM (inactive) in the test on NCI-H226. Moreover, the GI50 in the test on SK-OV-3 was > 100 µM (inactive); in the test on SF-268, 40.4 µM (inactive); in the test on LOX IMVI, 23.7 µM (inactive); with NCI-H460 it was 20 µM (inactive); in the test on A549, 34 µM (inactive); in the test with K562, 8.2 µM (inactive). The GI50 is 32.2 µM (inactive) in the test on HCC 2998; 71.1 µM (inactive) with OVCAR-5; 41.7 µM (inactive) with IGROV-1; 24.4 µM (inactive) with KM12; 31.3 µM (inactive) in the test with SF-295.

In the case of `Cc1ccc(C2=NN(C)COC2C(F)(F)F)cc1` (stereo not given), the GI50 in the test with COLO 205, in the test on SN12C, in the test with OVCAR-4, in the test on SK-MEL-28, with EKVX and in the test with NCI-H226 was > 100 µM (inactive) each time. Moreover, the GI50 in the test with SK-OV-3, with SF-268, in the test with NCI-H460, in the test with A549, in the test with K562 and in the test on HCC 2998 was > 100 µM (inactive) each time. Besides, the GI50 is greater than 100 µM in the test on HCT-15; > 100 µM (inactive) in the test on OVCAR-5; > 100 µM (inactive) in the test with IGROV-1; > 100 µM (inactive) in the test on KM12; > 100 µM (inactive) in the test on SF-295.

Take `O=S(=O)(c1ccccc1)C1(C2(S(=O)(=O)c3ccccc3)CCN=N2)CCN=N1` (stereo not given): the GI50 with COLO 205, with SN12C, in the test with OVCAR-4, in the test with SK-MEL-28, in the test on EKVX and with NCI-H226 was > 100 µM (inactive) throughout. Besides, the GI50 in the test on SK-OV-3, in the test with SF-268, in the test with LOX IMVI, in the test with NCI-H460, in the test on A549 and in the test on K562 was > 100 µM (inactive) throughout. The GI50 in the test with HCC 2998 was > 100 µM (inactive); in the test on HCT-15, greater than 100 µM; in the test on OVCAR-5, > 100 µM (inactive); with IGROV-1 it was > 100 µM (inactive); in the test on KM12, > 100 µM (inactive); in the test on SF-295 it was > 100 µM (inactive).

Turning to `Cc1cc(Cl)ccc1NC(=O)CCCC(=O)C1CCCC1=O` (stereo not given), the GI50 in the test on COLO 205, in the test on SN12C, in the test on OVCAR-4, with EKVX, in the test on NCI-H226 and in the test with SK-OV-3 was > 100 µM (inactive) each time. The GI50 in the test with SF-268, in the test on LOX IMVI, in the test with NCI-H460, with A549, in the test with K562 and in the test with HCC 2998 was > 100 µM (inactive) each time. For the same compound, the GI50 in the test on HCT-15 is greater than 100 µM; in the test on OVCAR-5 it was > 100 µM (inactive); with IGROV-1, > 100 µM (inactive); in the test with KM12, > 100 µM (inactive); with SF-295, > 100 µM (inactive).

Take `O=C(/C=C/c1ccccc1Cl)c1ccc(Cl)cc1Cl`: the GI50 is 18.1 µM (inactive) with COLO 205; 17.9 µM (inactive) in the test with SN12C; 15.6 µM (inactive) in the test on OVCAR-4; 11.6 µM (inactive) in the test on SK-MEL-28; 18.9 µM (inactive) in the test on EKVX; 15.7 µM (inactive) in the test with NCI-H226. In addition, the GI50 is 19.4 µM (inactive) with SK-OV-3; 15 µM (inactive) in the test on SF-268; 17.3 µM (inactive) in the test with NCI-H460; 21.3 µM (inactive) in the test with A549; 3.02 µM (inactive) in the test on K562; 19.1 µM (inactive) in the test on HCC 2998. Besides, the GI50 in the test with HCT-15 was 11.7 µM; in the test on OVCAR-5 it was 17.1 µM (inactive); with IGROV-1, 14.5 µM (inactive); in the test with KM12 it was 11.4 µM (inactive); with SF-295 it was 19.3 µM (inactive).

Regarding `CCOC(=O)NC(=O)c1cn(CCN2CCN(c3ncnc4[nH]cnc34)CC2)c(=O)[nH]c1=O`, the GI50 in the test on COLO 205, with SN12C, in the test with SK-MEL-28, in the test with EKVX, with NCI-H226 and with SK-OV-3 was > 100 µM (inactive) in each case. Besides, the GI50 with SF-268, in the test on LOX IMVI, in the test on NCI-H460, in the test on A549, in the test with K562 and with HCC 2998 was > 100 µM (inactive) in each case. In addition, the GI50 in the test with HCT-15 was greater than 100 µM; in the test on OVCAR-5, > 100 µM (inactive); with IGROV-1 it was > 100 µM (inactive); with KM12, > 100 µM (inactive); with SF-295, > 100 µM (inactive).

In the case of `Cc1nc(-c2nc(C)c(C(=O)/C=C/c3ccc([N+](=O)[O-])cc3)s2)sc1C(=O)/C=C/c1ccc([N+](=O)[O-])cc1`, the GI50 in the test on COLO 205, in the test on SN12C, with SK-MEL-28, in the test on EKVX, with NCI-H226 and in the test with SK-OV-3 was > 100 µM (inactive) each time. The GI50 with SF-268, in the test on LOX IMVI, in the test on NCI-H460, in the test with A549, in the test with K562 and in the test with HCC 2998 was > 100 µM (inactive) throughout. Further, the GI50 is greater than 100 µM in the test on HCT-15; > 100 µM (inactive) in the test on OVCAR-5; > 100 µM (inactive) in the test on IGROV-1; > 100 µM (inactive) with KM12; > 100 µM (inactive) in the test with SF-295.

On to `CC(C)(C)c1cc(C(OCCl)(C(F)(F)F)C(F)(F)F)c2c(c1)C(C(F)(F)F)(C(F)(F)F)OC21c2ccccc2C(=O)c2ccccc21`, for which the GI50 in the test on COLO 205, in the test with SN12C, in the test on OVCAR-4, in the test on SK-MEL-28, with EKVX and in the test with NCI-H226 was > 100 µM (inactive) in each case. For the same compound, the GI50 was > 100 µM (inactive) with NCI-H460; > 100 µM (inactive) with A549; > 100 µM (inactive) in the test on K562; > 100 µM (inactive) in the test with HCC 2998; greater than 100 µM in the test on HCT-15; > 100 µM (inactive) with OVCAR-5. Further, the GI50 with KM12 and with SF-295 was > 100 µM (inactive) in each case.

`CC1=C(C(=O)NCc2ccccc2)C(c2ccc(N(C)C)cc2)C(C(=O)NCc2ccccc2)=C(C)N1`: the GI50 in the test with COLO 205, in the test on SN12C, with OVCAR-4, in the test with SK-MEL-28, in the test with EKVX and in the test with NCI-H226 was > 100 µM (inactive) in each case. Also, the GI50 in the test on SK-OV-3, with NCI-H460, in the test on A549, with K562, in the test on HCC 2998 and with OVCAR-5 was > 100 µM (inactive) each time. Moreover, the GI50 in the test on IGROV-1, with KM12 and in the test on SF-295 was > 100 µM (inactive) in each case.

`[N-]=[N+]=N[C@H]1C[C@@H](CO)O[C@H]1n1cnc2c(N)ncnc21`: the GI50 with COLO 205 is > 100 µM (inactive); in the test on SN12C it was > 100 µM (inactive); in the test on OVCAR-4, > 100 µM (inactive); with SK-MEL-28, > 100 µM (inactive); with EKVX, 57.4 µM (inactive); in the test with NCI-H226, > 100 µM (inactive). Besides, the GI50 in the test on SF-268, with LOX IMVI, in the test on NCI-H460, with A549, in the test with HCC 2998 and in the test with OVCAR-5 was > 100 µM (inactive) each time. Moreover, the GI50 with KM12 and with SF-295 was > 100 µM (inactive) throughout.

Take `O=C(Cc1nc2ccccc2c(=O)n1-c1c(Cl)cccc1Cl)c1ccncc1`: the GI50 in the test on COLO 205 was 17.8 µM (inactive); in the test with SN12C, 85.9 µM (inactive); with OVCAR-4 it was 27.5 µM (inactive); in the test on SK-MEL-28 it was 21.1 µM (inactive); in the test on EKVX, 61.5 µM (inactive); with NCI-H226 it was > 10 µM (inactive). The GI50 in the test with SK-OV-3 was 53.1 µM (inactive); in the test on SF-268, 31 µM (inactive); in the test with LOX IMVI, > 10 µM (inactive); with NCI-H460, 21.4 µM (inactive); in the test with A549 it was 21.4 µM (inactive); in the test on K562 it was 26.7 µM (inactive). Moreover, the GI50 in the test with HCC 2998 is 22.5 µM (inactive); with HCT-15, 24.7 µM; in the test on IGROV-1, 22.4 µM (inactive); with KM12 it was 15.8 µM (inactive); in the test on SF-295, 18 µM (inactive).

Values taken from ChEMBL document CHEMBL1201862, “PubChem BioAssay data set” (2004).
